Patent US20200054539A1, “METHOD FOR REMOVING KERATOTIC PLUGS” (KAO CORPORATION, priority 2017, published 2020)

Tests used:
[1] = Detergency against keratotic plugs: penetration of the sample into the keratotic plugs; design: species or system human; conditions: keratotic plugs kept in contact with a sample for 1 minute; Table 1 samples
Experimental: (§1) 1. Evaluation of Detergency Against Keratotic Plugs During Cleansing
(§2) Keratotic plugs in the nasal region were removed with “Biore Nose Pack (manufactured by Kao Corporation)”, the resulting keratotic plugs on the pack were gently taken out with tweezers.
(§3) The resulting keratotic plugs were placed on a slide glass and were covered with a cover glass, and 0.05 mL of a sample was dropwise added to an edge of the cover glass. Consequently, the sample enters into the gap between the slide glass and the cover glass by capillary phenomenon and is brought into contact with the keratotic plugs. The contact of the keratotic plugs with the sample was recorded with a digital microscope (VHX-5000, manufactured by Keyence Corporation, magnification: x150), and the penetration of the sample into the keratotic plugs and the collapse state of the keratotic plugs were evaluated after one minute from the contact of the keratotic plugs with the sample. The results of each evaluation are shown in the columns “Detergency against keratotic plugs (penetration)” and “Detergency against keratotic plugs (during cleansing)” in Tables. The measurements were performed at 25° C.
(§4) The penetration was relatively evaluated by 11 criteria from the state 1 “the sample hardly penetrated into the keratotic plug” to the state 11 “the sample penetrated to the center of the keratotic plug”. The collapsibility by the detergency against keratotic plugs was relatively evaluated by 11 criteria from the state 1 “almost no change is observed in the external appearance of the keratotic plug” to the state 11 “peeling or separation is observed in the area from the surface layer to the central portion of the keratotic plug (the initial appearance of the keratotic plug is not retained)”.

[2] = Detergency against keratotic plugs during cleansing: collapse state of the keratotic plugs; design: species or system human; conditions: keratotic plugs kept in contact with a sample for 1 minute; Table 1 samples
Experimental: as §1, §2, §3, §4

[3] = test system: insoluble protein (zein protein); assay: Evaluation of effect of suppressing protein aggregation; conditions: Table 1 sample
Experimental: <<Evaluation of Effect of Suppressing Protein Aggregation>>
Thirty milliliters of a sample and 0.06 g of an insoluble protein (zein protein) were placed in a 35-mL standard glass bottle, and the concentration of the insoluble protein was adjusted to 0.2 mass % (test sample). Separately, a standard sample was prepared by using water instead of the sample and adjusting the concentration of the insoluble protein to 0.2 mass %. Subsequently, the standard glass bottles were sufficiently shaken and stirred up and down (shake width: 15 cm, 20 times at a rate of 5 times for 3 seconds) in a thermostatic chamber of 25° C. and were left to stand per 3 minutes. The precipitation state of the insoluble protein was then visually verified, and the ratio of the amount of the precipitated standard sample to the amount of the precipitated test sample (the height of the precipitate in each standard glass bottle was measured as the precipitation amount), (precipitation amount of standard sample)/(precipitation amount of test sample), was calculated. A higher ratio indicates a higher effect of suppressing protein aggregation.

[4] = Detergency against keratotic plugs after washing with water; design: species or system human; conditions: keratotic plugs kept in contact with water for 1 minute after the sample
Excerpt: as §4
2. Evaluation of Detergency Against Keratotic Plugs after Washing with Water
After one minute from the contact of the keratotic plugs with the sample, KimWipes (registered trademark) was brought into contact with an edge of the cover glass to remove the sample under the cover glass. Subsequently, 0.05 mL of water was dropwise added to an edge of the cover glass. The sample dropwise added with water was recorded with the digital microscope, and the collapse state of the keratotic plugs was evaluated after one minute from the contact of the keratotic plugs with water according to the criteria for evaluating collapsibility of the keratotic plugs. The results of the evaluation are shown in the column “Detergency against keratotic plugs (after washing with water)” in Table. The measurements were performed at 25° C.

| Compound | penetration into keratotic plugs (in words) [1] | collapse of the keratotic plugs in contact with the sample (in words) [2] | action on proteins (in words) [3] | collapse of the keratotic plugs on contact with water (in words) [4] |
| --- | --- | --- | --- | --- |
| sodium polyoxyethylene (2) lauryl ether sulfate [POE (2) sodium lauryl sulfate] | hardly penetrated into the keratotic plugs | the collapse of the keratotic plugs did not progress | the action on proteins was strong to dissolve the proteins |  |
| O=C([O-])O.[Na+] [sodium hydrogen carbonate] | hardly penetrated into keratotic plugs | the collapse of the keratotic plugs did not progress |  | the collapse of the keratotic plugs did not progress |
| O=P([O-])([O-])[O-].[Na+].[Na+].[Na+] [trisodium phosphate] | hardly penetrated into keratotic plugs | the collapse of the keratotic plugs did not progress |  | the collapse of the keratotic plugs did not progress |
| N=C(N)NCCC[C@H](N)C(=O)O [Arginine] | penetrated into keratotic plugs |  |  | further swelled to cause a phenomenon of accelerating the collapse of the keratotic plugs |
| O=P([O-])([O-])O.[Na+].[Na+] [disodium hydrogen phosphate] | hardly penetrated into keratotic plugs | the collapse of the keratotic plugs did not progress |  | the collapse of the keratotic plugs did not progress |
